In the supplement of paper PMC10307832:

Columns and labels:
Test in all cases: relative viability (nuclei count vs DMSO), 5 days (fraction); higher = more cells survive
Obatoclax + Olaparib = compound: COC1=CC(c2cc3ccccc3[nH]2)=N/C1=C\c1[nH]c(C)cc1C [Obatoclax] + O=C(c1cc(Cc2n[nH]c(=O)c3ccccc23)ccc1F)N1CCN(C(=O)C2CC2)CC1 [Olaparib] (partner 8 µM)
How it was run: (§1)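 Medians of duplicate plates are given as relative viability. That measure is the nuclei count in treated wells divided by the count in vehicle wells. Counts were taken on 4× images of lung cancer cell lines in 1536-well plates, 5 days after pin-tool dosing the day after seeding with one drug alone or a fixed anchor-drug dose plus five library-drug doses (not always all listed) in √10 steps.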

Obatoclax + Foretinib = compound: COC1=CC(c2cc3ccccc3[nH]2)=N/C1=C\c1[nH]c(C)cc1C [Obatoclax] + COc1cc2c(Oc3ccc(NC(=O)C4(C(=O)Nc5ccc(F)cc5)CC4)cc3F)ccnc2cc1OCCCN1CCOCC1 [Foretinib] (partner 0.25 µM)
How it was run: as §1

Bortezomib + Dasatinib = compound: CC(C)C[C@H](NC(=O)[C@H](Cc1ccccc1)NC(=O)c1cnccn1)B(O)O [Bortezomib] + Cc1nc(Nc2ncc(C(=O)Nc3c(C)cccc3Cl)s2)cc(N2CCN(CCO)CC2)n1 [Dasatinib] (partner 0.075 µM)
How it was run: as §1

Obatoclax + Linsitinib = compound: COC1=CC(c2cc3ccccc3[nH]2)=N/C1=C\c1[nH]c(C)cc1C [Obatoclax] + C[C@]1(O)C[C@@H](c2nc(-c3ccc4ccc(-c5ccccc5)nc4c3)c3c(N)nccn32)C1 [Linsitinib] (partner 1 µM)
How it was run: as §1

NCI-H650
relative viability (Obatoclax + Olaparib; first compound 0.01 µM): 0.385
relative viability (Obatoclax + Olaparib; first compound 0.03162 µM): 0.388
relative viability (Obatoclax + Olaparib; first compound 0.3162 µM): 0.264
relative viability (Obatoclax + Olaparib; first compound 1 µM): 0.18
relative viability (Obatoclax + Foretinib; first compound 0.01 µM): 1.01
relative viability (Obatoclax + Foretinib; first compound 0.03162 µM): 0.986
relative viability (Obatoclax + Foretinib; first compound 0.3162 µM): 0.717
relative viability (Obatoclax + Foretinib; first compound 1 µM): 0.38
relative viability (Bortezomib + Dasatinib; first compound 0.000632 µM): 0.503
relative viability (Bortezomib + Dasatinib; first compound 0.002 µM): 0.428
relative viability (Bortezomib + Dasatinib; first compound 0.006325 µM): 0.268
relative viability (Bortezomib + Dasatinib; first compound 0.02 µM): 0.16
relative viability (Obatoclax + Linsitinib; first compound 0.01 µM): 0.874
relative viability (Obatoclax + Linsitinib; first compound 0.03162 µM): 0.757
relative viability (Obatoclax + Linsitinib; first compound 0.1 µM): 0.329
relative viability (Obatoclax + Linsitinib; first compound 0.3162 µM): 0.528
relative viability (Obatoclax + Linsitinib; first compound 1 µM): 0.425
